# Assay results as given in patent publication US20050009840A1 (SUGEN, INC., priority 2003, published 2005).
# Target: T1, HGFR (Homo sapiens, UniProt P08581)
# T1 construct: purchased Upstate 14-526
# Assay: HGFR continuous-coupled spectrophotometric assay
# Assay type: biochemical
# Settings: at 1 pM; Table 7, library procedure 42; read-out: % Inhibition (percent c-MET inhibition)
# T1 sequence (P08581 974-1390 limits assumed): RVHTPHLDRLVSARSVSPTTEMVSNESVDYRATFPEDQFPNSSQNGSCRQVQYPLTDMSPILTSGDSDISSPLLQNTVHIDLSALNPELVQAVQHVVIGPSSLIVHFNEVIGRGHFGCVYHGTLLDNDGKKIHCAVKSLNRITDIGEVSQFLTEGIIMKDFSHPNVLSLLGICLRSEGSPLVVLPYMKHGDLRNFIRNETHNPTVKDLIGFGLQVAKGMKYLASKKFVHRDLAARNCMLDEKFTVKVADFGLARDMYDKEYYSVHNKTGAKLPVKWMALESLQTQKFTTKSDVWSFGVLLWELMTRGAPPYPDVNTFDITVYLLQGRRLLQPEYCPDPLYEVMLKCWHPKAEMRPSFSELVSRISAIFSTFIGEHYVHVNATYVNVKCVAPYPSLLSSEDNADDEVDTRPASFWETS
row,SMILES,inhibition at 1 pM [%]
1,Cc1noc(C)c1COc1cc(-c2ccc(C(=O)N3CCC(N4CCCC4)CC3)cc2)cnc1N,10
2,Nc1ncc(-c2ccc(C(=O)N3CCC(N4CCCC4)CC3)cc2)cc1OCc1ccc(Cl)s1,19
3,Nc1ncc(-c2ccc(C(=O)N3CCC(N4CCCC4)CC3)cc2)cc1OCc1ccncc1,10
4,Nc1ncc(-c2ccc(C(=O)N3CCC(N4CCCC4)CC3)cc2)cc1OCc1ccc(OCc2ccccc2)cc1,49
5,COc1ccc(OC)c(COc2cc(-c3ccc(C(=O)N4CCC(N5CCCC5)CC4)cc3)cnc2N)c1,19
6,Nc1ncc(-c2ccc(C(=O)N3CCC(N4CCCC4)CC3)cc2)cc1OCc1nsc(Cl)n1,5
7,Nc1ncc(-c2ccc(C(=O)N3CCC(N4CCCC4)CC3)cc2)cc1OCC1=C(Cl)SNN1,19
8,Cn1nc(-c2ccccc2)nc1COc1cc(-c2ccc(C(=O)N3CCC(N4CCCC4)CC3)cc2)cnc1N,5
9,Cn1nc(C2CC2)nc1COc1cc(-c2ccc(C(=O)N3CCC(N4CCCC4)CC3)cc2)cnc1N,5
10,Cc1ccnc2nc(COc3cc(-c4ccc(C(=O)N5CCC(N6CCCC6)CC5)cc4)cnc3N)cn12,10
11,Nc1ncc(-c2ccc(C(=O)N3CCC(N4CCCC4)CC3)cc2)cc1OCc1ncccn1,9
12,CCc1ccn2cc(COc3cc(-c4ccc(C(=O)N5CCC(N6CCCC6)CC5)cc4)cnc3N)nc2c1,9
13,Nc1nc(COc2cc(-c3ccc(C(=O)N4CCC(N5CCCC5)CC4)cc3)cnc2N)nc(Nc2ccccc2)n1,9
14,Nc1ncc(-c2ccc(C(=O)N3CCC(N4CCCC4)CC3)cc2)cc1OCc1nccn1Cc1ccccc1,8
15,N#Cc1ccc(COc2cc(-c3ccc(C(=O)N4CCC(N5CCCC5)CC4)cc3)cnc2N)cc1,8
16,Nc1ncc(-c2ccc(C(=O)N3CCC(N4CCCC4)CC3)cc2)cc1OCc1ccc2ccccc2c1,27

row,SMILES,inhibition at 1 pM [%]
1,N#Cc1cccc(COc2cc(-c3ccc(C(=O)N4CCC(N5CCCC5)CC4)cc3)cnc2N)c1,12
2,Nc1ncc(-c2ccc(C(=O)N3CCC(N4CCCC4)CC3)cc2)cc1OCc1ccc(F)cc1F,18
3,Nc1ncc(-c2ccc(C(=O)N3CCC(N4CCCC4)CC3)cc2)cc1OCc1nc2ccccc2[nH]1,4
4,Nc1ncc(-c2ccc(C(=O)N3CCC(N4CCCC4)CC3)cc2)cc1OCc1noc(-c2ccccc2)n1,16
5,CC(C)Cc1noc(COc2cc(-c3ccc(C(=O)N4CCC(N5CCCC5)CC4)cc3)cnc2N)n1,12
6,Nc1ncc(-c2ccc(C(=O)N3CCC(N4CCCC4)CC3)cc2)cc1OCc1nc(-c2ccccc2)n[nH]1,-2
7,Nc1ncc(-c2ccc(C(=O)N3CCC(N4CCCC4)CC3)cc2)cc1OCc1ccc(Cl)cc1Br,28
8,Cc1cnccc1COc1cc(-c2ccc(C(=O)N3CCC(N4CCCC4)CC3)cc2)cnc1N,11
9,CCc1nc(COc2cc(-c3ccc(C(=O)N4CCC(N5CCCC5)CC4)cc3)cnc2N)no1,5
10,Nc1ncc(-c2ccc(C(=O)N3CCC(N4CCCC4)CC3)cc2)cc1OCc1nc(NC2CC2)c2ccccc2n1,6
11,Nc1ncc(-c2ccc(C(=O)N3CCC(N4CCCC4)CC3)cc2)cc1OCc1nc(NCCO)c2ccccc2n1,7
12,CCOC(=O)c1nc(COc2cc(-c3ccc(C(=O)N4CCC(N5CCCC5)CC4)cc3)cnc2N)no1,8
13,CNC(=O)c1ccc(OC)c(-c2noc(COc3cc(-c4ccc(C(=O)N5CCC(N6CCCC6)CC5)cc4)cnc3N)n2)c1,11
14,Nc1ncc(-c2ccc(C(=O)N3CCC(N4CCCC4)CC3)cc2)cc1OCc1nc(-c2ccc(C(=O)N3CCCC3)cc2)no1,11
15,Nc1ncc(-c2ccc(C(=O)N3CCC(N4CCCC4)CC3)cc2)cc1OCc1nc(-c2cccc(C(=O)Nc3ccc(F)cc3)c2)no1,64
16,CC(C)NC(=O)c1ccc(-c2noc(COc3cc(-c4ccc(C(=O)N5CCC(N6CCCC6)CC5)cc4)cnc3N)n2)cc1,18

# Same assay, conditions: at 1 μM; Table 8, library procedure 43; read-out: % Inhibition (percent c-MET inhibition)
row,SMILES,inhibition at 1 µM [%]
1,CC1CN(C(=O)c2ccc(-c3cnc(N)c(OCc4ccc(F)cc4F)c3)cc2)CC(C)N1 (centres unmarked),20
2,CC1CN(C(=O)c2ccc(-c3cnc(N)c(OCc4cc(F)ccc4F)c3)cc2)CC(C)N1 (centres unmarked),25
3,CC1CN(C(=O)c2ccc(-c3cnc(N)c(OCc4ccc(F)c(F)c4)c3)cc2)CC(C)N1 (centres unmarked),14
4,CC1CN(C(=O)c2ccc(-c3cnc(N)c(OCc4ccc(OC(F)(F)F)cc4)c3)cc2)CC(C)N1 (centres unmarked),21
5,CC1CN(C(=O)c2ccc(-c3cnc(N)c(OCc4cc(F)cc(F)c4)c3)cc2)CC(C)N1 (centres unmarked),12
6,CC1CN(C(=O)c2ccc(-c3cnc(N)c(OCc4cccc(Cl)c4Cl)c3)cc2)CC(C)N1 (centres unmarked),40
7,Cc1ccc(COc2cc(-c3ccc(C(=O)N4CC(C)NC(C)C4)cc3)cnc2N)cc1Cl (centres unmarked),27
8,CC1CN(C(=O)c2ccc(-c3cnc(N)c(OCc4ccc(C(=O)NCc5cccnc5)cc4)c3)cc2)CC(C)N1 (centres unmarked),8
9,CC1CN(C(=O)c2ccc(-c3cnc(N)c(OCc4ccc(C(=O)NC5CCN(Cc6ccccc6)C5)cc4)c3)cc2)CC(C)N1 (centres unmarked),19
10,CC1CN(C(=O)c2ccc(-c3cnc(N)c(OCc4cccc(C(=O)Nc5ccc(N6CCCCC6)cc5)c4)c3)cc2)CC(C)N1 (centres unmarked),28
11,CC1CN(C(=O)c2ccc(-c3cnc(N)c(OCc4ccc5nc(C(F)(F)F)cc(OC(C)C)c5c4)c3)cc2)CC(C)N1 (centres unmarked),17
12,CC1CN(C(=O)c2ccc(-c3cnc(N)c(OCc4ccc5ccccc5c4Br)c3)cc2)CC(C)N1 (centres unmarked),58
13,CC1CN(C(=O)c2ccc(-c3cnc(N)c(OCc4cc(C(F)(F)F)ccc4Cl)c3)cc2)CC(C)N1 (centres unmarked),25
14,CC1CN(C(=O)c2ccc(-c3cnc(N)c(OCc4ccc(C(F)(F)F)c(F)c4)c3)cc2)CC(C)N1 (centres unmarked),17
15,CC1CN(C(=O)c2ccc(-c3cnc(N)c(OCc4cc(F)ccc4C(F)(F)F)c3)cc2)CC(C)N1 (centres unmarked),17
16,CC1CN(C(=O)c2ccc(-c3cnc(N)c(OCc4ccccc4OC(F)(F)F)c3)cc2)CC(C)N1 (centres unmarked),20
17,CCOC(=O)C1CCN(C(=O)c2ccc(COc3cc(-c4ccc(C(=O)N5CC(C)NC(C)C5)cc4)cnc3N)cc2)CC1 (centres unmarked),12
18,CCOC(=O)CCNC(=O)c1cccc(COc2cc(-c3ccc(C(=O)N4CC(C)NC(C)C4)cc3)cnc2N)c1 (centres unmarked),14
19,CC1CN(C(=O)c2ccc(-c3cnc(N)c(OCc4ccc(S(=O)(=O)Nc5ccc(F)cc5)cc4)c3)cc2)CC(C)N1 (centres unmarked),14
20,CC1CN(C(=O)c2ccc(-c3cnc(N)c(OCc4ccc(-c5ccnc(Br)n5)cc4)c3)cc2)CC(C)N1 (centres unmarked),17
21,CC1CN(C(=O)c2ccc(-c3cnc(N)c(OCc4cccc(-c5ccnc(Br)n5)c4)c3)cc2)CC(C)N1 (centres unmarked),19
22,CC1CN(C(=O)c2ccc(-c3cnc(N)c(OCc4ccc(S(N)(=O)=O)cc4)c3)cc2)CC(C)N1 (centres unmarked),16
23,CC1CN(C(=O)c2ccc(-c3cnc(N)c(OCc4ccc(C(=O)c5ccccc5)cc4)c3)cc2)CC(C)N1 (centres unmarked),35
24,Cc1cc(-c2onc(C)c2COc2cc(-c3ccc(C(=O)N4CC(C)NC(C)C4)cc3)cnc2N)no1 (centres unmarked),25

row,SMILES,inhibition at 1 µM [%]
1,CC1CN(C(=O)c2ccc(-c3cnc(N)c(OCc4ccc(S(=O)(=O)N5CCOCC5)cc4)c3)cc2)CC(C)N1 (centres unmarked),13
2,CC1CN(C(=O)c2ccc(-c3cnc(N)c(OCc4ccc(S(=O)(=O)c5ccc(F)cc5)cc4)c3)cc2)CC(C)N1 (centres unmarked),13
3,CC1CN(C(=O)c2ccc(-c3cnc(N)c(OCc4nc5ccccc5n4C)c3)cc2)CC(C)N1 (centres unmarked),16
4,CC1CN(C(=O)c2ccc(-c3cnc(N)c(OCc4nc(-c5ccccn5)no4)c3)cc2)CC(C)N1 (centres unmarked),15
5,CC1CN(C(=O)c2ccc(-c3cnc(N)c(OCc4c(F)ccc(F)c4Cl)c3)cc2)CC(C)N1 (centres unmarked),51
6,Cc1ccc(COc2cc(-c3ccc(C(=O)N4CC(C)NC(C)C4)cc3)cnc2N)c(F)c1F (centres unmarked),37
7,Cc1ccc(F)c(COc2cc(-c3ccc(C(=O)N4CC(C)NC(C)C4)cc3)cnc2N)c1F (centres unmarked),35
8,Cc1cc(COc2cc(-c3ccc(C(=O)N4CC(C)NC(C)C4)cc3)cnc2N)ccc1F (centres unmarked),16
9,Cc1ccc(F)cc1COc1cc(-c2ccc(C(=O)N3CC(C)NC(C)C3)cc2)cnc1N (centres unmarked),28
10,CC1CN(C(=O)c2ccc(-c3cnc(N)c(OCc4cccc(Br)c4)c3)cc2)CC(C)N1 (centres unmarked),21
11,Cc1onc(-c2ccccc2)c1COc1cc(-c2ccc(C(=O)N3CC(C)NC(C)C3)cc2)cnc1N (centres unmarked),16
12,CC1CN(C(=O)c2ccc(-c3cnc(N)c(OCc4cccc5cccnc45)c3)cc2)CC(C)N1 (centres unmarked),17
13,CC1CN(C(=O)c2ccc(-c3cnc(N)c(OCc4c(-c5ccccc5)nn(C)c4Cl)c3)cc2)CC(C)N1 (centres unmarked),18
14,Cc1ccc(-c2nnc(COc3cc(-c4ccc(C(=O)N5CC(C)NC(C)C5)cc4)cnc3N)o2)cc1 (centres unmarked),14
15,CC1CN(C(=O)c2ccc(-c3cnc(N)c(OCc4cc(-c5ccccc5)no4)c3)cc2)CC(C)N1 (centres unmarked),16
16,CC1CN(C(=O)c2ccc(-c3cnc(N)c(OCc4nccn4C)c3)cc2)CC(C)N1 (centres unmarked),12
17,Cc1nc(COc2cc(-c3ccc(C(=O)N4CC(C)NC(C)C4)cc3)cnc2N)n(C)n1 (centres unmarked),13
18,CC1CN(C(=O)c2ccc(-c3cnc(N)c(OCc4nnnn4Cc4ccccc4)c3)cc2)CC(C)N1 (centres unmarked),15
19,CC1CN(C(=O)c2ccc(-c3cnc(N)c(OCc4nc5ccc(Cl)cc5[nH]4)c3)cc2)CC(C)N1 (centres unmarked),10
20,CC1CN(C(=O)c2ccc(-c3cnc(N)c(OCc4cc5c(C(F)(F)F)nn(C)c5s4)c3)cc2)CC(C)N1 (centres unmarked),13
21,CC1CN(C(=O)c2ccc(-c3cnc(N)c(OCc4nc(-c5ccccc5)nn4C)c3)cc2)CC(C)N1 (centres unmarked),13
22,CC(C)Cc1noc(COc2cc(-c3ccc(C(=O)N4CC(C)NC(C)C4)cc3)cnc2N)n1 (centres unmarked),14
23,CC1CN(C(=O)c2ccc(-c3cnc(N)c(OCc4ccc(Cl)cc4Br)c3)cc2)CC(C)N1 (centres unmarked),29
24,CCOC(=O)c1nc(COc2cc(-c3ccc(C(=O)N4CC(C)NC(C)C4)cc3)cnc2N)no1 (centres unmarked),13
